Measured values: patent publication US9850245B2 (Merck Sharp & Dohme Corp., priority 2014, dated 2017)

Target: ROMK (Homo sapiens (Human), UniProt P48048)
Assay: Thallium Flux Assay
Assay type: cell-based
Method: A Thallium Flux Assay was performed on the compounds of the Examples. This assay has been described previously; see, e.g., PCT Published Application WO 2013/062900.

ROMK, sequence (P48048 whole entry): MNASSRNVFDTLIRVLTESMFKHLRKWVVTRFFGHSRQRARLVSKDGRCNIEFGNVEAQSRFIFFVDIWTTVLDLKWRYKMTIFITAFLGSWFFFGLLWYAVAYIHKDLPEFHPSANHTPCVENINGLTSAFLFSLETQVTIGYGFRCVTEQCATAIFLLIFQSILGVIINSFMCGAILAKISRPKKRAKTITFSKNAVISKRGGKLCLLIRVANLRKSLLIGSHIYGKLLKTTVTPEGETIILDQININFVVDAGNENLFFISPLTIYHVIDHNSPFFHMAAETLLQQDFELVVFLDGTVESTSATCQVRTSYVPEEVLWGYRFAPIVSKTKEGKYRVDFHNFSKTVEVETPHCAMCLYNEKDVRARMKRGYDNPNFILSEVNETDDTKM

| IC50 [nM] | SMILES |
| --- | --- |
| 41.8 | CC1=C(N2CCN(C)C3(CCN(CC(O)c4ccc(-n5cnnn5)nc4C)CC3)C2=O)COC1=O (single isomer, unassigned) [Example 35A, 9-(2-hydroxy-2-(2-methyl-6-(1H-tetrazol-1-yl)pyridin-3-yl)ethyl)-1-methyl-4-(4-methyl-5-oxo-2,5-dihydrofuran-3-yl)-1,4,9-triazaspiro[5.5]undecan-5-one] |
| 89.9 | CC1=C(N2CCOC3(CCN(C[C@@H](O)c4ccc5c(c4C)COC5=O)CC3)C2=O)COC1=O [Example 8B, (S)-9-(2-hydroxy-2-(4-methyl-1-oxo-1,3-dihydroisobenzofuran-5-yl)ethyl)-4-(4-methyl-5-oxo-2,5-dihydrofuran-3-yl)-1-oxa-4,9-diazaspiro[5.5]undecan-5-one] |
| 34.5 | O=C1OCC(N2CCOC3(CCN(C[C@@H](O)c4ccc(-n5cnnn5)nc4)CC3)C2)=C1Cl [Example 24B] |
| 48.4 | CC1=C(N2CC3(CCN(CC(O)c4ccc(-n5cnnn5)nc4C)CC3)OCC2=O)COC1=O (single isomer, unassigned) [Example 60, 9-(2-hydroxy-2-(2-methyl-6-(1H-tetrazol-1-yl)pyridin-3-yl)ethyl)-4-(4-methyl-5-oxo-2,5-dihydrofuran-3-yl)-1-oxa-4,9-diazaspiro[5.5]undecan-3-one] |
| 52.4 | CC1=C(N2CCOC3(CCN(CCc4ccc5c(c4C)COC5=O)CC3)C2=O)COC1=O [Example 49, 9-(2-(4-methyl-1-oxo-1,3-dihydroisobenzofuran-5-yl)ethyl)-4-(4-methyl-5-oxo-2,5-dihydrofuran-3-yl)-1-oxa-4,9-diazaspiro[5.5]undecan-5-one] |
| 42.5 | CC1=C(N2CCNC3(CCN(CC(O)c4ccc(-n5cnnn5)cc4)CC3)C2=O)COC1=O (single isomer, unassigned) [Example 5A, 9-(2-(4-(1H-tetrazol-1-yl)phenyl)-2-hydroxyethyl)-4-(4-methyl-5-oxo-2,5-dihydrofuran-3-yl)-1,4,9-triazaspiro[5.5]undecan-5-one] |
| 630 | O=C1OCC(N2CCOC3(CCN(C[C@@H](O)c4ccc(-n5cnnn5)nc4)CC3)C2)=C1C1CC1 [Example 28B, (S)-4-(9-(2-(6-(1H-tetrazol-1-yl)pyridin-3-yl)-2-hydroxyethyl)-1-oxa-4,9-diazaspiro[5.5]undecan-4-yl)-3-cyclopropylfuran-2(5H)-one] |
| 144 | CC1=C(N2CCN(C)C3(CCN(CC(O)c4ccc(-n5cnnn5)nc4C)CC3)C2=O)COC1=O (single isomer, unassigned) [Example 35B, 9-(2-hydroxy-2-(2-methyl-6-(1H-tetrazol-1-yl)pyridin-3-yl)ethyl)-1-methyl-4-(4-methyl-5-oxo-2,5-dihydrofuran-3-yl)-1,4,9-triazaspiro[5.5]undecan-5-one] |
| 161 | O=C1C=C(N2CCOC3(CCN(C[C@H](O)c4ccc(-n5cnnn5)nc4)CC3)C2=O)CO1 [Example 12, (R)-9-(2-(6-(1H-tetrazol-1-yl)pyridin-3-yl)-2-hydroxyethyl)-4-(5-oxo-2,5-dihydrofuran-3-yl)-1-oxa-4,9-diazaspiro[5.5]undecan-5-one] |
| 307 | CC1=C(N2C(=O)C3(CCN(C[C@H](O)c4ccc(-n5cnnn5)nc4)CC3)OCC2C)COC1=O (single isomer, unassigned) [Example 10B] |
| 114 | CC1=C(N2CCNC3(CCN(CC(O)c4cnc(-n5cnnn5)cn4)CC3)C2=O)COC1=O (single isomer, unassigned) [Example 3A, 9-(2-(5-(1H-tetrazol-1-yl)pyrazin-2-yl)-2-hydroxyethyl)-4-(4-methyl-5-oxo-2,5-dihydrofuran-3-yl)-1,4,9-triazaspiro[5.5]undecan-5-one] |
| 118 | CC1=C(N2CCOC3(CCN(CC(O)c4cnc(-n5cnnn5)cn4)CC3)CC2)COC1=O (single isomer, unassigned) [Example 40, 4-(3-(2-(5-(1H-tetrazol-1-yl)pyrazin-2-yl)-2-hydroxyethyl)-7-oxa-3,10-diazaspiro[5.6]dodecan-10-yl)-3-methylfuran-2(5H)-one] |
| 317 | CC1=C(N2C(=O)C3(CCN(C[C@@H](O)c4ccc(-n5cnnn5)nc4)CC3)OCC2C)COC1=O (single isomer, unassigned) [Example 10C] |
| 11.5 | O=C1OCC(N2CCOC3(CCN(C[C@H](O)c4ccc(-n5cnnn5)nc4)CC3)C2)=C1Cl [Example 24A] |
| 26 | CC1=C(N2CCOC3(CCN(CC(O)c4ccc(-n5cnnn5)cc4C)CC3)C2)COC1=O (single isomer, unassigned) [Example 31B, 4-(9-(2-hydroxy-2-(2-methyl-4-(1H-tetrazol-1-yl)phenyl)ethyl)-1-oxa-4,9-diazaspiro[5.5]undecan-4-yl)-3-methylfuran-2(5H)-one] |
| 123 | CC1=C(N2CCOC3(CCN(CC(O)c4ccc(-n5cnnn5)cc4F)CC3)C2)COC1=O (single isomer, unassigned) [Example 32B, 4-(9-(2-(2-fluoro-4-(1H-tetrazol-1-yl)phenyl)-2-hydroxyethyl)-1-oxa-4,9-diazaspiro[5.5]undecan-4-yl)-3-methylfuran-2(5H)-one] |
| 65.5 | Cc1nc(-n2cnnn2)ccc1C(O)CN1CCC2(CC1)CCN(C1=CC(=O)OC1)C(=O)O2 (single isomer, unassigned) [Example 27, 9-(2-hydroxy-2-(2-methyl-6-(1H-tetrazol-1-yl)pyridin-3-yl)ethyl)-3-(5-oxo-2,5-dihydrofuran-3-yl)-1-oxa-3,9-diazaspiro[5.5]undecan-2-one] |
| 267 | CC1=C(N2C(=O)C3(CCN(C[C@H](O)c4ccc5c(c4C)COC5=O)CC3)OCC2C)COC1=O (single isomer, unassigned) [Example 11] |
| 264 | Cc1c([C@@H](O)CN2CCC3(CC2)OCC(C)N(C2=CC(=O)OC2)C3=O)ccc2c1COC2=O (single isomer, unassigned) [Example 14] |
| 63.1 | CC1=C(N2CCNC3(CCN(C[C@@H](O)c4ccc(-n5cnnn5)nc4)CC3)C2=O)COC1=O [Example 4B, (S)-9-(2-(6-(1H-tetrazol-1-yl)pyridin-3-yl)-2-hydroxyethyl)-4-(4-methyl-5-oxo-2,5-dihydrofuran-3-yl)-1,4,9-triazaspiro[5.5]undecan-5-one] |
| 91.9 | COc1cc(-n2cnnn2)ccc1C(O)CN1CCC2(CC1)CN(C1=C(C)C(=O)OC1)CCO2 (single isomer, unassigned) [Example 33B, 4-(9-(2-hydroxy-2-(2-methoxy-4-(1H-tetrazol-1-yl)phenyl)ethyl)-1-oxa-4,9-diazaspiro[5.5]undecan-4-yl)-3-methylfuran-2(5H)-one] |
| 468 | Cc1nc(-n2cnnn2)ccc1C(O)CN1CCC2(CC1)CN(C1=CC(=O)OC1)C(=O)O2 (single isomer, unassigned) [Example 17, 8-(2-hydroxy-2-(2-methyl-6-(1H-tetrazol-1-yl)pyridin-3-yl)ethyl)-3-(5-oxo-2,5-dihydrofuran-3-yl)-1-oxa-3,8-diazaspiro[4.5]decan-2-one] |
| 218 | CC1=C(N2CCOC3(CCN(C[C@H](F)c4ccc5c(c4C)COC5=O)CC3)C2=O)COC1=O [Example 57, (R)-9-(2-fluoro-2-(4-methyl-1-oxo-1,3-dihydroisobenzofuran-5-yl)ethyl)-4-(4-methyl-5-oxo-2,5-dihydrofuran-3-yl)-1-oxa-4,9-diazaspiro[5.5]undecan-5-one] |
| 230 | CC1COC2(CCN(C[C@@H](O)c3ccc(-n4cnnn4)nc3)CC2)C(=O)N1C1=CC(=O)OC1 (single isomer, unassigned) [Example 13A] |
| 126 | CC1=C(N2CCOC3(CCN(CC(O)c4ccc(-n5cnnn5)cc4C)CC3)C2)COC1=O (single isomer, unassigned) [Example 31A, 4-(9-(2-hydroxy-2-(2-methyl-4-(1H-tetrazol-1-yl)phenyl)ethyl)-1-oxa-4,9-diazaspiro[5.5]undecan-4-yl)-3-methylfuran-2(5H)-one] |

| SMILES | IC50 [nM] |
| --- | --- |
| CC1=C(N2CCOC3(CCN(CC(O)c4cnc(-n5cnnn5)cn4)CC3)C2=O)COC1=O (single isomer, unassigned) [Example 18B, 9-(2-(5-(1H-tetrazol-1-yl)pyrazin-2-yl)-2-hydroxyethyl)-4-(4-methyl-5-oxo-2,5-dihydrofuran-3-yl)-1-oxa-4,9-diazaspiro[5.5]undecan-5-one] | 110 |
| CC1=C(N2CCOC3(CC4CCC(C3)N4C[C@H](O)c3ccc(-n4cnnn4)nc3)C2=O)COC1=O (stereo partly drawn) [Example 47, (1R,2′R,5S)-8-((R)-2-(6-(1H-tetrazol-1-yl)pyridin-3-yl)-2-hydroxyethyl)-4′-(4-methyl-5-oxo-2,5-dihydrofuran-3-yl)-8-azaspiro[bicyclo[3.2.1]octane-3,2′-morpholin]-3′-one] | 9.57 |
| CC1=C(N2CCOC3(CC4CCC(C3)N4CC(O)c3cnc(-n4cnnn4)cn3)C2=O)COC1=O (single isomer, unassigned) [Example 44] | 478 |
| CC1=C(N2CCOC3(CC4CCC(C3)N4C[C@H](O)c3ccc4c(c3C)COC4=O)C2=O)COC1=O (stereo partly drawn) [Example 42, (1R,2′R,5S)-8-((R)-2-hydroxy-2-(4-methyl-1-oxo-1,3-dihydroisobenzofuran-5-yl)ethyl)-4′-(4-methyl-5-oxo-2,5-dihydrofuran-3-yl)-8-azaspiro[bicyclo[3.2.1]octane-3,2′-morpholin]-3′-one] | 87.4 |
| CC1=C(N2CCNC3(CCN(CC(O)c4ccc(-n5cnnn5)nc4C)CC3)C2=O)COC1=O (single isomer, unassigned) [Example 2B, 9-(2-hydroxy-2-(2-methyl-6-(1H-tetrazol-1-yl)pyridin-3-yl)ethyl)-4-(4-methyl-5-oxo-2,5-dihydrofuran-3-yl)-1,4,9-triazaspiro[5.5]undecan-5-one] | 56.2 |
